Tested on: Plantago lanceolate (ribwort plantain) and Poa annua (annual meadow grass)
Assay: Pot test with solid (powdered) alkali silicates or mixtures: weed coverage rate, degree of efficiency = weed penetration resistance (Example 2)
Format: in vivo
Settings: in the dosage used in the mixtures
Experimental: The experiment was carried out in the laboratory in plant pots with a volume of 450 cm^3. The application area was 78.5 cm^2. The soil substrate was a sifted land soil. Humus (humic soil) was used as a nutrient source for the desired plant. […] On top of the humic soil, 250 g of sifted land soil was placed. Both soil substrates were free of weed growth prior to treatment. Both soils contained minimal residues of endemic weed seeds or inflowing seeds. These present seeds were not sufficient for efficient weed growth. […] For this purpose, the weeds were worked into the top soil layer in a depth of 2-4 mm. Different alkali silicate powders were used in this experiment, which are specified in detail below. Hardeners and/or performance modifiers were added, if applicable. The solid formulations were mixed and then applied homogeneously to the soil surface. […] The coverage rate was determined by manual visual assessment of the plant pots at the specified times, as described in example 1. […] From this in turn the degree of efficiency according to Abbott was calculated as follows: Degree of efficiency=[coverage rate control(day x)−coverage rate product(day x)]/coverage rate control(day x)*100 Furthermore, the quality of the formed layer was observed regularly with respect to crack formation. […]

CC(=O)[O-].CC(=O)[O-].[Ca+2] [calcium acetate]
weed penetration resistance of the performance modifier alone: An effect is observed only at the beginning of the experiment
